The results in this text go back to patent publication US12037324B2, “Biarylmethyl heterocycles” (Université de Montréal, priority 2016, dated 2024).

The target of assay [1] is T1, AGTR1 (Homo sapiens, UniProt P30556).
T1 construct: host or cells: Pathunter CHO-K1 AGTR1 β-arrestin cell line (CHO-K1)
T1 sequence (P30556 1-359): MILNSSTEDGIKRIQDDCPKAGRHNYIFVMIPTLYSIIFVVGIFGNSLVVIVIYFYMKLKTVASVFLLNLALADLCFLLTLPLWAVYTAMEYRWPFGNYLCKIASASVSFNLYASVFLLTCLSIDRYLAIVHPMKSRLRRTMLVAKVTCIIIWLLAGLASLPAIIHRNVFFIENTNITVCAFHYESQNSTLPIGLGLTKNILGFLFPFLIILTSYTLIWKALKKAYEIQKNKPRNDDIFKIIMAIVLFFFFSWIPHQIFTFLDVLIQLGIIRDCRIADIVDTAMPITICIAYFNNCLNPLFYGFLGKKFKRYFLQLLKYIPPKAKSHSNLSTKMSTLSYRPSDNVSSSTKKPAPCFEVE
The experiment in a line: DiscoveRx β-arrestin2 recruitment assay (enzyme complementation, Pathunter CHO-K1 AGTR1 β-arrestin cell line). The format is cell-based. As to conditions: DiscoveRx β-arrestin2 recruitment; for DiscoveRx β-arrestin2 Ymax (%): maximal response. In short, it runs like this:
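Chemiluminescent enzyme-complementation read-out of β-arrestin2 recruitment to AGTR1 in engineered CHO-K1 cells after 90 min compound exposure at 37° C. Values are 4-parameter logistic EC50s in agonist mode, IC50s in antagonist mode, with efficacy relative to the maximal All response.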
Background: Activated receptors often draw arrestin, which recruitment assays turn into a signal.

Assay [2] deals with T2, hAT1R (Homo sapiens, UniProt P30556).
T2 sequence (P30556 1-359): T1 sequence (P30556 1-359)
Description: BRET Gq biosensor assay, agonist response, HEK293 cells. The format is cell-based. As to conditions: section of the 42nd table directly before the BRET P63 section. On the procedure:
BRET β-arrestin2 and Gq Activation Assays
In another aspect of the invention, association of the ATIR with signaling proteins is assessed using bioluminescence resonance energy transfer assays (Stephane Angers, Ali Salahpour et al. 2002). This technology measures the association between bioluminescent and fluorescent protein tags.
Several of the plasmid constructs used in BRET experiments were previously described. Briefly, the coding sequence of β-arrestin2 was fused to Renilla luciferase II to generate β-arrestin2-Rluc (Quoyer, Janz et al. 2013). The membrane targeting motif from K-Ras, CAAX motif (GKKKKKKSKTKCVIM), was fused to Renilla GFP to create rGFP-CAAX plasmid (Namkung Y et al., Nat Commun (2016) 7, 12178). The Renilla luciferase II was inserted in the Gaq protein to generate Gaq-Rluc (Breton, Sauvageau et al. 2010). The Gγ1 protein was tagged with GFP10 to obtain GFP-Gyl, using the same strategy described previously for GFP-Gy2 (Gales, Rebois et al. 2005). The Gaq binding domain of the p63RhoGEF protein (amino acids 295-502) was fused to Renilla luciferase II to create P63-Rluc. Finally, the hAT1R plasmid construct encoding the receptor was generated by optimizing the coding sequence of human angiotensin II receptor (GeneOptimizer from ThermoFisher), and adding an artificial cleavable signal peptide from bovine prolactin ([…]) in N-terminus of the receptor to increase cell surface expression.
Gq Biosensor Assay HEK293 cells were cultured in DMEM supplemented with Penicillin-Streptomycin and 10% fetal bovine serum. Two days before the BRET experiment, HEK293 cells were transfected with hAT1R expression plasmid (200 ng/well) as well as Gaq-Rluc (100 ng/well), Gβ1 (375 ng/well) and GFP-Gγ1 (625 ng/well), using linear polyethylenimine 25 kDa (PEI) at a PEI:DNA ratio of 3:1. Transfected cells were directly seeded in 96-well plates, at a density of 35 000 cells per well, and maintained in culture for the next 48 h.
BRET experiments were carried out subsequently using the following procedures: cells were washed once with Tyrode's buffer (137 mM NaCl, 1 mM CaCl2, 0.9 mM KCl, […], 3.6 mM NaH2PO4, 5.5 mM glucose, 12 mM NaHCO3, and 25 mM HEPES, pH 7.4) and 90 μl of Tyrode's buffer was added to each well. Cells were equilibrated in their new buffer at room temperature for at least 30 minutes. Following the equilibration period, the coelenterazine substrate was first added to the cells, 10 μl per well of a 10×solution (prolume purple coelenterazine at a final concentration of 2 μM), immediately followed by compound addition using the HP D300 digital dispenser from Tecan (10 singlicate concentrations). Cells were incubated for 5 min at room temperature and BRET readings were then collected using a Synergy Neo Multi-Mode reader from BioTek with BRET2 filters 410/515, to record agonist response. […] A second reading was collected 5 min after this second addition, using the Synergy Neo Multi-Mode reader from BioTek with BRET2 filters 410/515, to record antagonist response. The BRET signal was determined by calculating the ratio of the light emitted by GFP (515 nm) over the light emitted by the Rluc (410 nm). To analyze agonist response, BRET signal values were converted into percentage of activation using the non-stimulated control as 0% and AngII maximal response as 100%. Sigmoidal concentration-response curves were generated with those normalized values using a 4-parameter logistic equation (IDBS ActivityBase software), to determine EC50 of the different compounds. In the case of antagonist response analysis, BRET signal values were converted into percentage of inhibition using the fixed dose of AngII (corresponding to the EC50) as 0% and non-stimulated control as 100%. Sigmoidal concentration-response curves were generated with those normalized values using a 4-parameter logistic equation (IDBS ActivityBase software), to determine IC50 of the different compounds.

Assay [3] addresses T2, hAT1R. The experiment in a line: cell-based. As to conditions: Low AT1R Expression; for EC50: read-out: BRET β-Arrestin2 Low AT1R Expression EC50. On the technique in general: In BRET a luciferase serves as donor, and the signal depends on an acceptor being close.
Assay [4] has as its target T2, hAT1R. The experiment in a line: cell-based. As to conditions: agonist mode; for EC50: read-out: BRET P63 EC50.
Assay [5] addresses T1, AGTR1. The experiment in a line: DiscoveRx IP1 accumulation assay (HTRF), agonist mode, Pathunter CHO-K1 AGTR1 β-arrestin cell line. The format is cell-based. To be noted: for EC50: read-out: IP-1 EC50. In short, it runs like this:
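Agonist mode in CHO-K1 AGTR1 β-arrestin cells plated 14-16 h before; compounds at varying concentrations for 90 min at 37° C, IP1 accumulation read by HTRF (D2-conjugate and anti-IP1 cryptate, 20 min room temperature). EC50 from 4-parameter logistic fit; activity given as percentage of maximal AII effect.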
Background: Time-resolved FRET reads energy transfer from a long-lived donor to a nearby acceptor.

The target in assay [6] is T2, hAT1R. Description: BRET β-arrestin2 biosensor assay, higher receptor expression (hAT1R 5 ng/well), HEK293 cells. The format is cell-based. To be noted: for EC50: High AT1R Expression.

Broadly, the EC50 is the concentration at which the effect is half-maximal. For the compound `CCCCc1nc(Cl)c(C(=O)O)n1Cc1ccc(-c2cc(-c3cc(N(C)C)ccn3)ccc2-c2nn[nH]n2)cc1` [Example 422, 2-butyl-4-chloro-1-((5′-(4-(dimethylamino)pyridin-2-yl)-2′-(2H-tetrazol-5-yl)-[1,1′-biphenyl]-4-yl)methyl)-1H-imidazole-5-carboxylic acid], the EC50 was 68.7 nM on AGTR1 [1] and 209 nM on hAT1R [2]. In addition, the “DiscoveRx β-arrestin2 Ymax (%)” value at AGTR1 [1] worked out at 26.7%.

Regarding `CCCCc1nc(Cl)c(C(=O)OCc2oc(=O)oc2C)n1Cc1ccc(-c2cc(-c3ccccc3)ccc2-c2nn[nH]n2)cc1` [Example 411], at AGTR1 [1], the EC50 is 30.9 nM and the “DiscoveRx β-arrestin2 Ymax (%)” value came to 56.4%. Besides, the EC50 at hAT1R [2] was 17 nM.

`CCCCc1nc(Cl)c(C(=O)O)n1Cc1ccc(-c2cc(-c3cc(C)ccn3)ccc2-c2nn[nH]n2)cc1` [Example 420]: the EC50 on AGTR1 [1] was found to be 6.5 nM; at hAT1R [2], 79.7 nM. Further, on AGTR1 [1], the “DiscoveRx β-arrestin2 Ymax (%)” value is given as 73.6%.

Turning to `CCOc1nc2cccc(C(=O)O)c2n1Cc1ccc(-c2cc(-c3ccc(OC)cn3)ccc2-c2noc(=O)[nH]2)cc1` [Example 308], the values for the half-maximal effective concentration (EC50) on AGTR1 [1] and on hAT1R [2] were 29.1 nM and 27.3 nM, respectively. The “DiscoveRx β-arrestin2 Ymax (%)” value on AGTR1 [1] worked out at 51.8%.

Take `CCCCc1nc(Cl)c(C(=O)O)n1Cc1ccc(-c2cc(-n3ccc4ccccc43)ccc2-c2nn[nH]n2)cc1` [Example 417]: at AGTR1 [1], the response was half-maximal at 5.9 nM (EC50) and the “DiscoveRx β-arrestin2 Ymax (%)” value is reported as 39.6%. The concentration for a half-maximal effect (EC50) at hAT1R [2] was over 100000 nM.

Turning to `CCCCc1nc(Cl)c(C(=O)O)n1Cc1ccc(-c2cc(-n3ccc4ccccc43)ccc2-c2noc(=O)[nH]2)cc1` [Example 408], at AGTR1 [1], the EC50 is 23.3 nM and the “DiscoveRx β-arrestin2 Ymax (%)” value was found to be 32.5%. The concentration for a half-maximal effect (EC50) at hAT1R [2] was over 100000 nM.

With `CCCCc1nc(Cl)c(C(=O)O)n1Cc1ccc(-c2cc(-c3cc(OC)ccn3)ccc2-c2nn[nH]n2)cc1` [Example 421], the EC50 at AGTR1 [1] worked out at 9.4 nM; at hAT1R [2] it was 92.5 nM. Further, the “DiscoveRx β-arrestin2 Ymax (%)” value at AGTR1 [1] is 38.5%.

On to `CCOc1nc2cccc(C(=O)O)c2n1Cc1ccc(-c2cc(N3CC(C)(C)c4ccccc43)ccc2C(=O)O)cc1` [Example 319, 1-((2′-carboxy-5′-(3,3-dimethylindolin-1-yl)-[1,1′-biphenyl]-4-yl)methyl)-2-ethoxy-1H-benzo[d]imidazole-7-carboxylic acid], for which, at AGTR1 [1], a half-maximal response (EC50) required 71.1 nM and the “DiscoveRx β-arrestin2 Ymax (%)” value came to 49.0%. At hAT1R [2], the EC50 was 787 nM.

Turning to `CCOc1nc2cccc(C(=O)O)c2n1Cc1ccc(-c2cc(-c3cnc(OC)c(C)c3)ccc2-c2nn[nH]n2)cc1` [Example 328, 2-ethoxy-1-((5′-(6-methoxy-5-methylpyridin-3-yl)-2′-(2H-tetrazol-5-yl)-[1,1′-biphenyl]-4-yl)methyl)-1H-benzo[d]imidazole-7-carboxylic acid], at AGTR1 [1], the midpoint of the response, the EC50, lay at 802 nM and the “DiscoveRx β-arrestin2 Ymax (%)” value was 51.8%. Moreover, at hAT1R [2], the EC50 turned out to be 2620 nM.

Take `CCCc1nc(CC)c(C(=O)OCc2oc(=O)oc2C)n1Cc1ccc(-c2cc(-c3ccccc3)ccc2-c2nn[nH]n2)cc1` [Example 412, (5-methyl-2-oxo-1,3-dioxol-4-yl)methyl 1-((6′-(2H-tetrazol-5-yl)-[1,1′:3′,1′″-terphenyl]-4-yl)methyl)-4-ethyl-2-propyl-1H-imidazole-5-carboxylate]: at AGTR1 [1], the EC50 stood at 11.7 nM and the “DiscoveRx β-arrestin2 Ymax (%)” value was 64.1%. The EC50 at hAT1R [2] was determined as 62.7 nM.

As to `CCc1nc2c(C)cc(C)nc2n1Cc1ccc(-c2cc(-c3ccccc3C)ccc2-c2nn[nH]n2)cc1` [Example 2], at hAT1R [3], the “BRET β-Arrestin2 Low AT1R Expression Ymax (%)” value is 15.2% and the EC50 was determined as 11 nM. Also, at AGTR1 [1], the concentration for a half-maximal effect (EC50) came out at 19.8 nM and the “DiscoveRx β-arrestin2 Ymax (%)” value turned out to be 21.8%. Moreover, at hAT1R [4], the “BRET P63 Ymax” value worked out at 2.7% and the EC50 worked out at 22 nM. In addition, at AGTR1 [5], the “IP-1 Ymax (%)” value came to 13.1% and the EC50 turned out to be 71.8 nM. For the same compound, on hAT1R [6], the “BRET β-Arrestin2 High AT1R Expression Ymax (%)” value is 74.2% and the EC50 worked out at 11.3 nM.

Consider `CCCCC1=NC2(CCCC2)C(=O)N1Cc1ccc(-c2cc(-c3ccccc3)ccc2-c2nn[nH]n2)cc1` [Example 33], for which, at hAT1R [3], the “BRET β-Arrestin2 Low AT1R Expression Ymax (%)” value was determined as 27.5%. Further, the EC50 on hAT1R [3] is 26.7 nM; on AGTR1 [1], 9.7 nM; at hAT1R [4], over 10000 nM; at AGTR1 [5] it was 80.8 nM; at hAT1R [6], 16.5 nM. The “DiscoveRx β-arrestin2 Ymax (%)” value on AGTR1 [1] stood at 29.9%. Besides, the “IP-1 Ymax (%)” value on AGTR1 [5] is 3.3%. Further, on hAT1R [6], the “BRET β-Arrestin2 High AT1R Expression Ymax (%)” value is recorded as 83.0%.

On to `CCCC1=NC2(CCCC2)C(=O)N1Cc1ccc(-c2cc(N3CCC[C@@H](C)C3)ccc2-c2nn[nH]n2)cc1` [Example 117], for which the EC50 on hAT1R [3] was over 100000 nM; on AGTR1 [1], 74 nM; at hAT1R [4], over 100000 nM; at AGTR1 [5] it was over 100000 nM; at hAT1R [6], 94.2 nM. Also, at AGTR1 [1], the “DiscoveRx β-arrestin2 Ymax (%)” value amounted to 30.6%. For the same compound, the “BRET β-Arrestin2 High AT1R Expression Ymax (%)” value on hAT1R [6] came to 35.0%.

On to `CCCCC1=NC2(CCOC2)C(=O)N1Cc1ccc(-c2cc(-c3ccccc3)ccc2-c2nnn[nH]2)cc1` (single isomer, unassigned) [Example 147, 3-((6′-(1H-tetrazol-5-yl)-[1,1′:3′,1″-terphenyl]-4-yl)methyl)-2-butyl-7-oxa-1,3-diazaspiro[4.4]non-1-en-4-one], for which the “BRET β-Arrestin2 Low AT1R Expression Ymax (%)” value at hAT1R [3] turned out to be 26.1%. For the same compound, the EC50 on hAT1R [3] was 109 nM; at AGTR1 [1], 107 nM; at hAT1R [4], over 100000 nM; at AGTR1 [5], 178 nM; at hAT1R [6], 126 nM. The “DiscoveRx β-arrestin2 Ymax (%)” value on AGTR1 [1] is 23.0%. Also, on AGTR1 [5], the “IP-1 Ymax (%)” value is given as 3.6%. Further, at hAT1R [6], the “BRET β-Arrestin2 High AT1R Expression Ymax (%)” value turned out to be 66.6%.
